The source of these data is PMC11729425 (ACS Pharmacology & Translational Science, 2024).

The structures appear in SMILES notation.

A short description of data set [1]: Chronic (20 weeks) oral administration in aged mice: body weight, food intake, organ mass, plasma citrulline. The format is in vivo, C57BL/6JRj mice. Conditions: 1 mg/kg in the food. As for the experimental part: Figure 2 Chronic oral administration of ALT-007 enhances physical fitness in aged mice. (A) Schematic representation of the study time-line. Compounds were mixed in the food, ALT-007 at 1 mg/kg and DMSO at equivalent volume. At week 0: young mice were 2 months old, and the old mice were 18 months old. (B) Body weight curve over the course of the study (20 weeks). (C) Food intake curve throughout the study. (D–G) Organ mass at sacrifice (week 20), normalized to body weight. (H) Oral glucose tolerance test (oGTT) performed at week 17. (I) Best performance during hanging time normalized to BW at week 7. (J) Best performance during grip strength on the 4 limbs normalized to BW at week 8. (K) Rotarod’s best latency time at week 9. (L) VO2Max performed at week 11. (M) Uphill maximum running time performed at week 13. N = 9 per group. (N) Difference of CK level after—before 90 min downhill running performed at week 15. N = 6 in young, N = 8 in DMSO and N = 7 in ALT-007-treated groups. (O–Q) Measurement of kCAL/h at night (O) and at day (P) and movement recording in x, y, z (Q) during 24 h in CLAMS at week 19. N = 12 per group unless specified otherwise. Quantitative data are expressed as median with IQR. *P < 0.05, **P < 0.01, ***P < 0.001, ****P < 0.0001. ANOVA test was used for multiple comparison, and the Mann–Whitney U test when comparing 2 groups. All tests were 2 sided.
Young (2 month-old) and aged (18 month-old) male C57BL/6JRj mice were purchased from Janvier Laboratories. Housing conditions involved maintaining two to five animals per cage under a 12 h light/dark cycle, with continuous access to food and water. Animals were fed a standard chow diet (Safe 150) with the following composition: 56.9% nitrogen-free extract, of which 41.0% was starch and 3.4% was sugars, 18.0% crude protein, 4.8% crude fat, 4.2% crude ash, 4.1% crude fiber and 12.0% moisture. Young (2 month-old) and old (18 month-old) mice were monitored for 20 weeks. Mice were administered either DMSO as a control or ALT-007. ALT-007 was dissolved in DMSO or DMSO alone were mixed in the food (1 mg/kg for ALT-007 or equivalent volume of DMSO for controls). Body weight and food intake measurements were recorded weekly until sacrifice.
(§1) Prior to sacrifice, mice were fasted for 4 h in the morning. Animals were sacrificed between 1:30 and 4 p.m. Mice were anesthetized with isoflurane, followed by a complete blood draw from the vena cava and perfusion with cold phosphate-buffered saline. Immediately thereafter, various tissues including liver, kidney, spleen, heart, brain, gastrocnemius muscle and tibialis anterior muscle were harvested, weighted and promptly flash-frozen in liquid nitrogen.
1.1. Supplementary Figure 1
(A) Citrulline levels in the plasma of mice treated with ALT-007 at 1 mg/kg or vehicle […]

In data set [2] the test system is Aged C57BL/6J mice. Briefly: Hanging test. The format is in vivo, C57BL/6JRj mice. Conditions: 1 mg/kg in the food, week 7, normalized to BW. As for the experimental part:
Mice were allowed to acclimate to the testing room for 30 min before the experiment. Each mouse was positioned on a wire grid, gripping it with all four limbs. The grid was then inverted, causing the mouse to hang, and the duration it could maintain this position was recorded. The maximum trial length was set at 2 min and 30 s (150 s). The latency to fall was measured five times for each mouse, with 10 min intervals between trials.

Data set [3] concerns Aged C57BL/6J mice. As to the kind of experiment: Grip strength. The format is in vivo, C57BL/6JRj mice. The conditions noted are these: 1 mg/kg in the food, week 8, 4 limbs, normalized to BW. Here is the method: Grip strength was evaluated using a grip strength test. Each mouse’s grip strength was measured using a pulldown grid assembly connected to a grip strength meter (Columbus Instruments). The mouse was pulled along a straight line parallel to the grip to determine peak force. The experiment was conducted three times, and the highest recorded value was considered for the analysis.

For data set [4], the system named is Aged C57BL/6J mice. As to the kind of experiment: Lean mass (echoMRI) and muscle weight at sacrifice in aged mice. The format is in vivo, C57BL/6JRj mice. Conditions: 1 mg/kg in the food. As for the experimental part:
At the first and last (week 20) after experiment onset (as indicated in Figure 2A), body composition analysis was conducted. Each mouse was placed for short in an Echo-MRI (magnetic resonance imaging) machine, specifically the 3-in-1 model from Echo Medical Systems. This procedure recorded lean mass, along with total body weight, with each measurement taking approximately 1 min per individual.
as §1

On the set-up of data set [5]: method as in PMID 29669694. Conditions: compared to Myriocin; cited from earlier work.
On the set-up of data set [6]: method as in PMID 29669694. The conditions noted are these: compared to Myriocin; cited from earlier work. The source holds these as a separate data set.
On the set-up of data set [7]: method as in PMID 29669694. The conditions noted are these: cited from earlier work.
Data set [8] deals with C2C12 myoblasts carrying the APPswe mutation and human myoblasts from aged donors and patients with IBM. On the set-up: method as in PMID 37196064. The conditions noted are these: cited from earlier work.

Regarding `COc1cc(C(=O)N2CC[C@H](NC(=O)c3ccccc3OC(F)(F)F)c3c2cnn3C(C)C)cnc1OC` [ALT-007], in data set [1] (20 weeks), the body weight entry is “stable body weight” and the food intake result is recorded as “absence of changes in food intake”. In addition, in data set [1] (20 weeks, vs untreated mice), the “gastrointestinal (GI) toxicity by plasma citrulline levels” value is “no gastrointestinal (GI) toxicity”. For the same compound, the “tissue weights relative to control” value in data set [1] (at sacrifice week 20, normalized to body weight) was “absence of changes”. Moreover, the maximum hanging time result in the data set on Aged C57BL/6J mice [2] is recorded as “increased compared to aged control mice”. Further, in the data set on Aged C57BL/6J mice [3], the grip strength entry was “increased compared to aged control mice”. The “lean mass measured by echoMRI” value in the data set with Aged C57BL/6J mice [4] (after 11 weeks) is recorded as “increased lean mass”. Besides, the “muscle weight (gastrocnemius, tibialis anterior)” value with Aged C57BL/6J mice [4] (at sacrifice after 20 weeks) was “increased muscle weight”. In addition, the aqueous solubility result in data set [5] is listed as “improved”. The permeability result in data set [6] is “improved”. Further, the oral bioavailability entry in data set [7] is “orally bioavailable”. Besides, in data set [7] (rodents), the “toxicity in long-term dosing” value was “non-toxic in long-term dosing in rodents”. In addition, the protein aggregates entry in data set [8] is recorded as “potent effect in reducing protein aggregates”.
